Test results published in patent US7928113B2, “Integrin-binding small molecules” (University of Southern California, priority 2005, dated 2011).
Read-outs that look alike come from different tables or passages of the source.

Legend:
[1] = test system: MDA-MB-435 breast cancer cell line; experiment: Cytotoxicity MTT assay, MDA-MB-435; format: cell-based, human; settings: for inhibition at 20 µM: Homo sapiens, MDA-MB-435, 72 h MTT, read-out: % inhibition of cell growth at 20 μM, 435
Source text: (§1) Cell Culture. Human breast cancer cells (MCF-7, αvβ3—, overexpressed wild-type p53, ER+; MDA-MB 468, p53 mutant, ER+; and MDA-MB-435, αvβ3+, p53 mutant, ER−) and non-small cell lung cancer cells H1975 were obtained from the American Type Cell Culture (Rockville, Md. Q4). The HEY human ovarian carcinoma cell line naturally resistant to cisplatin (CDDP) was kindly provided by Dr. Dubeau (University of Southern California Norris Cancer Center). Cells were maintained as monolayer cultures in RPMI 1640 supplemented with 10% fetal bovine serum (Gemini-Bioproducts, Woodland, Calif.) and 2 mmol/L L-glutamine at 37° C. in a humidified atmosphere of 5% CO2. To remove the adherent cells from the flask for passaging and counting, cells were washed with PBS without calcium or magnesium, incubated with a small volume of 0.25% trypsin-EDTA solution (Sigma, St. Louis, Mo.) for 5 to 10 minutes, and washed with culture medium and centrifuged. All experiments were done using cells in exponential cell growth.
(§2) Cytotoxicity Assay. Cytotoxicity was assessed by 3-(4,5-dimethylthiazol-2-yl)-2,5-diphenyltetrazolium bromide (MTT) assay as previously described.^41, 54 Briefly, cells were seeded in 96-well microtiter plates and allowed to attach. Cells were subsequently treated with a continuous exposure to the corresponding drug for 72 hours. An MTT solution (at a final concentration of 0.5 mg/mL) was added to each well and cells were incubated for 4 hours at 37° C. After removal of the medium, DMSO was added and the absorbance was read at 570 nm. All assays were done in triplicate. The IC50 was then determined for each drug from a plot of log (drug concentration) versus percentage of cell kill.
(§3) Cytotoxicity of Selected Compounds in a Panel of Cancer Cell lines. Initially, we tested all compounds in two breast cancer cell lines MDA-MB-435 and MCF7 with high and low αvβ3 expression as well as in HEY ovarian cancer cell line naturally resistant to cisplatin. […] We observed a remarkable specificity for some of the compounds against these cells. […] Considering the fact that αvβ3 mediates migration, attachment and apoptosis of cancer cells, the combination of these novel high affinity antagonists with conventional cytotoxic drugs should show improved therapeutic benefits without additional toxicity.
(§4) NVX-188 was tested for cytotoxicity by MTT assays in two breast cancer cell lines, MDA-MB-435 with high αvβ3 integrin expression and MCF7 with low αvβ3 integrin expression, and an ovarian cancer cell line, HEY, which was used to test for cell growth inhibition evidence. NVX-188 was further evaluated in a lung cancer cell line, NCI-H1975, and a mouse fibroblast, NIH3T3. NVX-188 was not cytotoxic at the highest dose level tested (20 uM).

[2] = Cytotoxicity MTT assay, MDA-MB-435; format: cell-based, human; settings: human, MDA-MB-435 breast cancer cells; MDA-MB-435, Table 5
Source text: as §1, §2, §3, §4

[3] = test system: HEY ovarian cancer cell line; experiment: Cytotoxicity MTT assay, HEY; format: cell-based, human; settings: for inhibition at 20 µM: Homo sapiens, HEY, 72 h MTT, read-out: % inhibition of cell growth at 20 μM, HEY
Source text: as §1, §2, §3, §4

[4] = Cytotoxicity MTT assay, HEY; format: cell-based, human; settings: human, HEY ovarian carcinoma cells; HEY, Table 5
Source text: as §1, §2, §3, §4

[5] = test system: MCF7 breast cancer cell line; experiment: Cytotoxicity MTT assay, MCF7; format: cell-based, human; settings: for inhibition at 20 µM: Homo sapiens, MCF7, 72 h MTT, read-out: % inhibition of cell growth at 20 μM, MCF7
Source text: as §1, §2, §3, §4

[6] = Cytotoxicity MTT assay, MCF7; format: cell-based, human; settings: human, MCF-7 breast cancer cells; MCF-7, Table 5
Source text: as §1, §2, §3, §4

[7] = test system: panel of cancer cell lines; experiment: Cytotoxicity MTT assay, statements on the whole panel of cell lines; format: cell-based; settings: for specificity of cytotoxicity among the cell lines (in words): five cell lines of Table 5; for cytotoxicity (in words): MTT, panel of cell lines, highest dose tested 20 uM
Protocol: as §2, §3, §4

[8] = Cytotoxicity MTT assay, NIH3T3; format: cell-based, mouse; settings: mouse, NIH3T3 fibroblasts; NIH3T3, Table 5
Protocol: as §2, §3, §4

[9] = Cytotoxicity MTT assay, NCI-H1975; format: cell-based, human; settings: human, NCI-H1975 non-small cell lung cancer cells; NCI-H1975, Table 5
Source text: as §1, §2, §3, §4

NIH3T3 mouse fibroblast = experiment: Cytotoxicity MTT assay, NIH3T3; format: cell-based; settings: Table B
Protocol: as §2, §3, §4

αvβ3 integrin = biological target: T1, αvβ3 integrin (Homo sapiens, UniProt P05106+P06756); experiment: Receptor binding assay, competitive binding with 125I-labeled echistatin on the surface of NCI-H1975 cells; settings: for αvβ3 binding affinity (in words) / IC50: 125I-echistatin competition, NCI-H1975 cells
T1 construct: endogenous in cells; host or cells: NCI-H1975 cells (non-small cell lung cancer), whole cells in suspension
Protocol: Receptor Binding Assay. […] 96-Well multiscreen DV plate (filter pore size: 0.65 μm, Millipore, Billerica, Mass.) was incubated with ^125I-echistatin (50,000 cpm/well) in the presence of increasing concentrations of αvβ3 antagonists. The total incubation volume was adjusted to 200 μL. After the cells were incubated for 3 h at room temperature, the plate was filtered through multiscreen vacuum manifold and washed twice with cold binding buffer. The hydrophilic PVDF filters were collected, and the radioactivity was determined using NaI(Tl) gamma counter (Packard, Meriden, Conn.). The best-fit IC50 values were calculated by fitting the data by nonlinear regression using GraphPad Prism (GraphPad Software, Inc., San Diego, Calif.). Experiments were carried out with triplicate samples.
αvβ3 Binding. Receptor binding affinity of all compounds on the surface of non-small cell lung cancer NCI-H1975 cells was determined in competitive binding experiments using ^125I-labeled echistatin as radioligand and the results are presented in Table 3. […] These compounds represent a novel set of antagonists with diverse structural scaffolds. […] This is an important feature considering the highly electrostatic nature of the RGD peptide binding region of αvβ3. The RGD peptide forms strong electrostatic interactions through its two charged ends with αvβ3 in the αvβ3-cyclic RGD peptide complex crystal structure. Compounds AV3, AV27, and AV32 broadly fall into a RGD mimetic antagonist category, since they have a carboxylate group or amine/amide group, at either ends that can establish similar electrostatic interactions with αvβ3. Additionally, presence of several hydrophilic functional groups on these compounds favors their interaction with the highly electrostatic region of the RGD binding site of αvβ3. Given these interesting structural features, we tested additional structurally close analogues of AV27 and AV32. However, substructure search queries using the core scaffolds of these compounds in our in-house databases yield no close analogues. Structure-activity studies around the core scaffolds of these two compounds might be an alternative option to further optimize their binding affinity towards αvβ3. […] We carried out a limited structure-activity relationship (SAR) analysis on compound AV26 by testing compounds AV34-AV38 in our binding assay (Table 3). The substructure search using the core scaffold of AV26 as a search query retrieved few compounds from our in-house database of 359,224 compounds. The analogues AV34-AV38 were purchased from Chemical Diversity (San Diego, Calif.) and screened for their αvβ3 binding affinity. […] Studies are also underway to selectively deliver cytotoxic agents such as paclitaxel to αvβ3 overexpressing cancers through covalent conjugation.
Receptor binding affinity of NVX-188 was determined through a competitive binding experiment using ^125I-radiolabeled echistatin on NCI-H1975 cells. Increasing concentrations of NVX-188 were added with a fixed amount of echistatin to determine the concentration of NVX-188 that prevents 50% of the echistatin from binding to αvβ3 integrin on the cell surface (i.e., IC50).

[10] = test system: NCI-H1975 lung cancer cell-line; experiment: Cytotoxicity MTT assay, NCI-H1975; format: cell-based, human; settings: Table B
Source text: as §1, §2, §3, §4

[11] = read-out: αvβ3 binding affinity (IC50)

Compound `CN(C)c1ccc(/C=C2\SC(=Nc3ccc(O)cc3)NC2=O)cc1` [AV34] has an inhibition at 20 µM [1] of 65%, an IC50 at 72 h [2] of 2.8 ± 0.01 µM and an inhibition at 20 µM [3] of 25%. The IC50 at 72 h [4] was > 20 µM, the inhibition at 20 µM [5] was 31% and the IC50 at 72 h [6] was > 20 µM. For the same compound, the “specificity of cytotoxicity among the cell lines (in words)” value [7] was “A similar trend, but smaller magnitude”.
Work on `O=C(O)c1cccc(-c2ccc(/C=N/Nc3nc4nonc4nc3Nc3ccc(F)cc3)o2)c1` [AV30] yielded an inhibition at 20 µM [1] of 71%, an IC50 at 72 h [2] of 8 ± 0.5 µM and an inhibition at 20 µM [3] of 90%. It also gave an IC50 at 72 h [4] of 7 ± 0.42 µM, an IC50 at 72 h [8] of 13 ± 3 µM and an inhibition at 20 µM [5] of 52%. The IC50 at 72 h [6] was 19 ± 4 µM, the “specificity of cytotoxicity among the cell lines (in words)” value [7] was “a profile very similar in MDA-MB-435, HEY, and NIH3T3 cells, but was significantly less active against MCF-7 and NCI-H1975 cells” and the IC50 at 72 h [9] was > 20 µM.
For `COc1cc(Cl)c(/C=C2\S/C(=N/c3cccc(C(=O)O)c3)N(C)C2=O)cc1OC` [AV38], the inhibition at 20 µM [1] was 0%, the IC50 ([1]; Table B) was > 20 µM and the IC50 at 72 h [2] was > 20 µM. For the same compound, the inhibition at 20 µM [3] was 0%, the IC50 ([3]; Table B) was > 20 µM and the IC50 at 72 h [4] was > 20 µM. The IC50 at 72 h [8] was > 20 µM, the IC50 (NIH3T3 mouse fibroblast) was > 20 µM and the inhibition at 20 µM [5] was 18%. The IC50 ([5]; Table B) was > 20 µM, the IC50 at 72 h [6] was > 20 µM and the “cytotoxicity (in words)” value [7] was “not cytotoxic”. For the same compound, the “αvβ3 binding affinity (in words)” value (αvβ3 integrin) was “high-affinity binding characteristics at picomolar concentrations”, the “αvβ3 binding affinity (in words)” value (αvβ3 integrin; listed as NVX-188) was “active at picomolar concentrations” and the IC50 (αvβ3 integrin; same value restated in pM, read-out: αvβ3 integrin binding affinity (IC50)) was 30 pM. For the same compound, the “fold higher affinity than the parent compound AV26” value (αvβ3 integrin; ratio of αvβ3 binding IC50 to AV26) was 800 fold, the IC50 [10] was > 20 µM and the IC50 at 72 h [9] was > 20 µM.
With `Cc1ccc(NC(=O)CN2C(=O)N/C(=C\c3cccn3-c3cccc(C(=O)O)c3)C2=O)cc1` [AV27] the inhibition at 20 µM [1] was 0%, the IC50 at 72 h [2] was > 20 µM and the inhibition at 20 µM [3] was 5%. For the same compound, the IC50 at 72 h [4] was > 20 µM, the IC50 at 72 h [8] was > 20 µM and the inhibition at 20 µM [5] was 0%. For the same compound, the IC50 at 72 h [6] was > 20 µM, the IC50 (αvβ3 integrin; [11]) was 18000 pM and the IC50 at 72 h [9] was > 20 µM.
For `CS(=O)(=O)Nc1ccc(C2=NN(C(=O)CCCC(=O)O)C(c3ccco3)C2)cc1` (stereo not shown) [AV32], the inhibition at 20 µM [1] was 0%, the IC50 at 72 h [2] was > 20 µM and the inhibition at 20 µM [3] was 18%. For the same compound, the IC50 at 72 h [4] was > 20 µM, the IC50 at 72 h [8] was > 20 µM and the inhibition at 20 µM [5] was 26%. For the same compound, the IC50 at 72 h [6] was > 20 µM, the IC50 (αvβ3 integrin; [11]) was 605000 pM and the IC50 at 72 h [9] was > 20 µM.
With `CCOc1cc(/C=C2\S/C(=N/c3ccc(C(=O)O)cc3)N(C)C2=O)ccc1O` [AV26] the inhibition at 20 µM [1] was 94%, the “fold selectivity for MDA-MB-435 cells as compared to the HEY cells” value ([1]; cytotoxicity IC50 ratio) was ~40 fold and the “fold selectivity for MDA-MB-435 cells as compared to the MCF7, NIH3T3, and CRL5908 cells” value ([1]; cytotoxicity IC50 ratio) was “more than 60 fold”. It also gave an IC50 at 72 h [2] of 0.34 ± 0.06 µM, an inhibition at 20 µM [3] of 51% and an IC50 at 72 h [4] of 13 ± 8 µM. The IC50 at 72 h [8] was > 20 µM, the inhibition at 20 µM [5] was 37% and the IC50 at 72 h [6] was > 20 µM. The “cytotoxicity (in words)” value [7] was “considerable cytotoxicity in a breast cancer cell line”, the IC50 (αvβ3 integrin; [11]) was 240000 pM and the IC50 at 72 h [9] was > 20 µM.
